For 13 compounds, GI50 and TGI results are on record in PubChem BioAssay (NCI).

Some test systems named below: PC-3 prostate; MCF7 breast; BT-549 breast; T-47D breast; MDA-MB-231 breast; MDA-MB-435; SNB-78 CNS; DMS 114 small cell lung; DLD-1 colon; LXFL 529 NSCLC.
Common to all, as to test: DTP human tumour cell line panel, 48 h

Molecules are shown by their SMILES. Several values for one entry are separate records, joined by “and”; a condition that tells them apart may be missing. Identical values can stand only once.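 Results reflect a 48-hour exposure of cells in 96-well plates to compound at five concentrations. Here, GI50 denotes the concentration required for 50% inhibition of growth. Definition used: TGI = concentration required for complete inhibition of growth.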 Some results are limits rather than exact numbers.

For the compound `O=c1cc(-c2ccccc2)oc2c(O)c(O)ccc12`, the GI50 (in general, the concentration giving 50% growth inhibition) was 7.74 µM in the assay on PC-3 prostate; 20 µM in the assay with MCF7 breast; 8.36 µM with BT-549 breast; 16.9 µM in the assay on T-47D breast; 23.2 µM in the assay on MDA-MB-231 breast; 13 µM in the assay on MDA-MB-435. Moreover, the TGI (usually the concentration giving total growth inhibition) in the assay with PC-3 prostate was more than 100 µM; in the assay on MCF7 breast it was more than 100 µM; in the assay with BT-549 breast, 42.3 µM; with T-47D breast, more than 100 µM; with MDA-MB-231 breast it was more than 100 µM; with MDA-MB-435, more than 100 µM.

With `COc1ccc(-c2oc3ncnc(N)c3c2-c2ccc(NC(=O)Nc3cc(C(F)(F)F)ccc3F)cc2)cc1`, the GI50 with PC-3 prostate was 1.94 µM; in the assay with MCF7 breast, 0.675 µM; in the assay on BT-549 breast, 1.82 µM; in the assay with T-47D breast, 1.94 µM; in the assay on MDA-MB-231 breast, 1.1 µM; with MDA-MB-435 it was 0.871 µM. The TGI turned out to be 11.4 µM in the assay on PC-3 prostate; 3.21 µM with MCF7 breast; 5.08 µM in the assay on BT-549 breast; 10.1 µM with T-47D breast; 6.17 µM in the assay with MDA-MB-231 breast; 3.95 µM in the assay on MDA-MB-435.

Turning to `COc1ccc(-c2c(NC(=O)Nc3ccc(Cl)c(C(F)(F)F)c3)cnn2-c2ccc(S(N)(=O)=O)cc2)cc1`, the GI50 is 2.87 µM in the assay on PC-3 prostate; 2.67 µM in the assay on MCF7 breast; 1.81 µM in the assay on BT-549 breast; 2.69 µM in the assay on T-47D breast; 2.04 µM with MDA-MB-231 breast; 2.77 µM in the assay with MDA-MB-435. The TGI is 11.4 µM in the assay on PC-3 prostate; 9.22 µM in the assay with MCF7 breast; 4.4 µM in the assay with BT-549 breast; 12.4 µM with T-47D breast; 4.72 µM in the assay on MDA-MB-231 breast; 9.6 µM in the assay with MDA-MB-435.

For the compound `COc1ccc(NC(=O)c2ccc(C(F)(F)F)nc2Nc2ccc(Cl)cc2C)cc1Cl`, the GI50 was 3.53 µM in the assay on PC-3 prostate; 2.42 µM with MCF7 breast; 4.88 µM in the assay with BT-549 breast; 2.58 µM in the assay on T-47D breast; 1.64 µM with MDA-MB-231 breast; 7.99 µM with MDA-MB-435. In addition, the TGI came to 12.1 µM in the assay with PC-3 prostate; 13.1 µM in the assay on MCF7 breast; 18.6 µM with BT-549 breast; 28.9 µM in the assay on T-47D breast; 6.82 µM in the assay on MDA-MB-231 breast; 25.9 µM with MDA-MB-435.

As for `Cc1ccccc1SC(/C=C/NNC1=NC(c2ccccc2)C(c2ccccc2)=NN1)c1ccccc1` (stereo not drawn), the TGI was 73.9 µM in the assay on SNB-78 CNS, 78.4 µM with DMS 114 small cell lung and more than 100 µM in the assay with DLD-1 colon.

Turning to `O=C1NN(C(=O)c2ccccc2)C(c2ccc(Cl)c(Cl)c2)=C/C1=C\c1ccccc1[N+](=O)[O-]`, the GI50 with PC-3 prostate is 1.52 µM; in the assay with MCF7 breast, 1.82 µM; with BT-549 breast it was 1.18 µM; in the assay on T-47D breast it was 2.25 µM; with MDA-MB-231 breast, more than 6.75 µM; with MDA-MB-435 it was more than 6.75 µM. Moreover, the TGI in the assay on PC-3 prostate was more than 6.75 µM; in the assay with MCF7 breast, more than 6.75 µM; with BT-549 breast it was 5.4 µM; with T-47D breast, more than 6.75 µM; in the assay with MDA-MB-231 breast it was more than 6.75 µM; with MDA-MB-435, more than 6.75 µM.

As to `Oc1cccc2ccc(SSc3ccc4cccc(O)c4n3)nc12`, the TGI amounted to 29.9 µM in the assay on PC-3 prostate; 18.9 µM with MCF7 breast; 37.6 µM in the assay with BT-549 breast; 38.6 µM with T-47D breast; 32.3 µM with MDA-MB-231 breast; 37.5 µM in the assay on MDA-MB-435.

Consider `O=c1cccccc1O`, for which the concentration for total growth inhibition (TGI) in the assay with PC-3 prostate, in the assay on MCF7 breast, with BT-549 breast, in the assay with T-47D breast, in the assay on MDA-MB-231 breast and in the assay with MDA-MB-435 was more than 100 µM in each case.

Take `Oc1cccc2cccnc12`: the GI50 is 1.72 µM and 3.31 µM with MCF7 breast; 13.3 µM and 21.5 µM and 5.94 µM in the assay with MDA-MB-435. The TGI was 5.05 µM and > 31.6 µM in the assay with MCF7 breast; more than 100 µM in the assay with DLD-1 colon; more than 100 µM in the assay with BT-549 breast; more than 100 µM in the assay with T-47D breast; more than 100 µM with LXFL 529 NSCLC; > 28.7 µM and 84 µM and 33.1 µM with MDA-MB-231 breast. For the same compound, in the assay on MDA-MB-435, the TGI is more than 100 µM.

For the compound `COC(=O)[C@@H](C)C[C@H](Cc1ccc(F)cc1)NC(=O)c1csc([C@@H](C[C@H](C(C)C)N(C)C(=O)[C@@H](NC(=O)[C@H]2CCCCN2C)C2CC2)OC(C)=O)n1`, the GI50 with PC-3 prostate was 0.415 µM; in the assay with MCF7 breast, 0.0587 µM; with BT-549 breast, 0.188 µM; in the assay with T-47D breast, more than 25 µM; in the assay with MDA-MB-231 breast, 0.315 µM; in the assay with MDA-MB-435, 0.0194 µM. The TGI was more than 25 µM with PC-3 prostate; more than 25 µM in the assay on MCF7 breast; 3.72 µM with BT-549 breast; more than 25 µM with T-47D breast; 1.65 µM in the assay with MDA-MB-231 breast; 0.109 µM with MDA-MB-435.

For `COc1ccc(C2=NN(C(C)=O)c3nc4ccccc4nc3O2)cc1`, the TGI in the assay on DMS 114 small cell lung was more than 100 µM; with DLD-1 colon it was 88 µM; in the assay with LXFL 529 NSCLC, more than 100 µM.

For `COc1cccc(C2SC(C)C(=O)N2NC(=O)C(O)c2ccccc2)c1` (stereo not drawn), the GI50 in the assay with PC-3 prostate, with MCF7 breast, in the assay with BT-549 breast, in the assay on T-47D breast, in the assay on MDA-MB-231 breast and in the assay on MDA-MB-435 was more than 100 µM throughout. Moreover, the TGI with PC-3 prostate, in the assay on MCF7 breast, in the assay with BT-549 breast, in the assay on T-47D breast, in the assay with MDA-MB-231 breast and with MDA-MB-435 was more than 100 µM each time.

Take `N#Cc1ccc2[nH]cc(Cc3c[nH]c4ccc(C#N)cc34)c2c1`: the GI50 in the assay with PC-3 prostate was 9.86 µM; in the assay with MCF7 breast it was 15.2 µM; in the assay on BT-549 breast, 9.57 µM; in the assay on T-47D breast it was 10.6 µM; in the assay with MDA-MB-231 breast, 10.3 µM; in the assay on MDA-MB-435, 11.4 µM. The TGI in the assay with PC-3 prostate is 27.8 µM; with MCF7 breast, more than 50 µM; with BT-549 breast, 20.7 µM; in the assay on T-47D breast, 32.8 µM; in the assay on MDA-MB-231 breast, 25.1 µM; in the assay on MDA-MB-435, 24 µM.
